These results are taken from patent US11834440B2, “Beta-lactam derivatives for the treatment of diseases” (Insilico Medicine IP Limited, priority 2021, dated 2023).

Molecules are shown by their SMILES.

In this assay the target is QPCTL (Homo sapiens (Human), UniProt Q9NXS2). The assay can be described thus: QPCTL inhibition, SensoLyte Green Glutaminyl Cyclase Activity Assay. In kind it is biochemical. Particulars: 0.8 nM 2x enzyme solution, 45 min at 37° C., 50 mM Tris pH 8.0, 1% DMSO. On the procedure: Preparation of working solution: 2×Glutaminyl Cyclase substrate was diluted in assay buffer to […]. 2×enzyme solution and QPCTL was diluted in assay buffer to 0.8 nM. Glutaminyl Cyclase Developer was diluted in assay buffer to 1×(containing 10 mM 1-Benzyl-Imidazole). Serial dilution of test compounds was performed in DMSO. The final DMSO concentration in 100 μl reaction was 1%. The assay buffer was 50 mM Tris, pH 8.0, 0.01% BSA.
Chain of QPCTL (Q9NXS2 whole entry, species assumed): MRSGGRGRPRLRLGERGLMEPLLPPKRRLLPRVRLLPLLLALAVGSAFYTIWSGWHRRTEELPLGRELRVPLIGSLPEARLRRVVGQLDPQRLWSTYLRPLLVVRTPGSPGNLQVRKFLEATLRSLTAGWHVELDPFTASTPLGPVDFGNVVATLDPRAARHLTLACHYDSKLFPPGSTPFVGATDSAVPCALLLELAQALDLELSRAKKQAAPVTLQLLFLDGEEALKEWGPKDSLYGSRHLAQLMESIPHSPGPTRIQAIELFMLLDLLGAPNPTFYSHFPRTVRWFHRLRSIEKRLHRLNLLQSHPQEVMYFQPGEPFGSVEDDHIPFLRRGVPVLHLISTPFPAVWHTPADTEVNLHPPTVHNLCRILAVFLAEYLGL
Procedure: 50 μL of 2×Glutaminyl Cyclase substrate solution was added into the assay plate followed by 50 μL of 2×enzyme solution. The plate was centrifuged for 1 min at 1000 rmp. Next the plate was incubated for 45 minutes at 37° C. This was followed by the additional of 50 μL of the prepared Glutaminyl Cyclase developer and incubated for additional 30 min at 37° C. Results were read on SpectraMax Paradigm detecting with emission at Ex/Em=490 nm/520 nm.
A Z′ value was calculated for each assay plate. The Z′ value must be >0.5 or the plate was disqualified. […] Results were calculated using GraphPad Prism 7 software is used for IC50 determination.
The molecule `CC[C@@H]1C(=O)N(c2ccc3[nH]cnc3c2)[C@@H]1c1c(F)cc(-c2cnn(C(F)(F)F)c2)cc1F` (single isomer, unassigned) [Compound 51A] gave an IC50 of 25 to 1000 nM. The molecule `C[C@@H]1C(=O)N(c2ccc3[nH]cnc3c2)[C@@H]1c1c(F)cc(-c2cnn(C(F)(F)F)c2)cc1F` (single isomer, unassigned) [Compound 14A] returned a half-maximal inhibitory concentration (IC50) of 25 to 1000 nM. Molecule `Cc1ccc(-c2ccc([C@H]3[C@@H](C4CC4)C(=O)N3c3ccc4[nH]cnc4c3)c(C)n2)nn1` (single isomer, unassigned) [Compound 71B] had a 50% inhibitory concentration (IC50) of under 2 nM. With `C[C@@H]1C(=O)N(c2ccc3[nH]cnc3c2)[C@@H]1c1c(F)cc(-c2cnn(C)c2)cc1F` (single isomer, unassigned) [Compound 13A], the concentration for half-maximal inhibition (IC50) was over 1000 nM. `O=C1[C@H](O)[C@H](c2c(F)cc(-c3cnn(C(F)(F)F)c3)cc2F)N1c1ccc2[nH]cnc2c1` (racemic) [Compound 16CR] had an IC50 of under 2 nM. `O=C1[C@H](O)[C@H](c2c(F)cc(OCCC(F)F)cc2F)N1c1ccc2[nH]cnc2c1` (single isomer, unassigned) [Compound 8B]: the IC50 was under 2 nM. `C[C@H]1C(=O)N(c2ccc3[nH]cnc3c2)[C@H]1c1c(F)cc(-c2cnn(C)c2)cc1F` (single isomer, unassigned) [Compound 13B] showed an IC50 of 2 to 25 nM.

Molecule `Cn1cc(-c2cc(F)c([C@H]3[C@@H](O)C(=O)N3c3ccc4[nH]cnc4c3)c(F)c2)cn1` (single isomer, unassigned) [Compound 15B] showed an IC50 of under 2 nM.

On to `O=C1[C@H](CC(F)(F)F)[C@H](c2c(F)cc(-c3cnn(C(F)(F)F)c3)cc2F)N1c1ccc2[nH]cnc2c1` (single isomer, unassigned) [Compound 54B], for which the half-inhibitory concentration (IC50) was under 2 nM. `O=C1[C@H](C2CC2)[C@H](c2c(F)cc(-c3cn(C(F)(F)F)nn3)cc2F)N1c1ccc2[nH]cnc2c1` (single isomer, unassigned) [Compound 50B] registered a half-maximal inhibitory concentration (IC50) of under 2 nM. In turn, `Cc1cc(-c2cnn(C(F)(F)F)c2)ncc1[C@@H]1[C@H](C2CC2)C(=O)N1c1ccc2[nH]cnc2c1` (single isomer, unassigned) [Compound 66A] yielded a 50% inhibitory concentration (IC50) of 25 to 1000 nM. As for `O=C1[C@H](C2CC2)[C@H](c2ccc(-c3cnn(C(F)(F)F)c3)cc2C(F)(F)F)N1c1ccc2[nH]cnc2c1` (single isomer, unassigned) [Compound 76B], the IC50 is over 1000 nM. `C[C@@H]1C(=O)N(c2ccc3[nH]cnc3c2)[C@H]1c1c(F)cc(-n2cc(C(F)(F)F)cn2)cc1F` (racemic) [Compound 28TR, (trans and racemic)-1-(1H-benzo[d]imidazol-5-yl)-4-(2,6-difluoro-4-(4-(trifluoromethyl)-1H-pyrazol-1-yl)phenyl)-3-methylazetidin-2-one] returned a half-maximal inhibitory concentration (IC50) of 2 to 25 nM. The molecule `O=C1[C@@H](O)[C@H](c2c(F)cc(-c3cnn(C(F)F)c3)cc2F)N1c1ccc2[nH]cnc2c1` (racemic) [Compound 25TR] came in with an IC50 of 2 to 25 nM. In turn, `O=C1[C@H](C2CC2)[C@H](c2ccc(-c3cnn(C(F)(F)F)c3)cc2Cl)N1c1ccc2[nH]cnc2c1` (single isomer, unassigned) [Compound 75B] registered an IC50 of under 2 nM. Under `Cc1cc(-c2cnn(C(F)(F)F)c2)ncc1[C@H]1[C@@H](C2CC2)C(=O)N1c1ccc2[nH]cnc2c1` (single isomer, unassigned) [Compound 66B] stands under 2 nM. As for `O=C1[C@H](C2CC2)[C@H](c2ccc(OCCC(F)F)nc2)N1c1ccc2[nH]cnc2c1` (single isomer, unassigned) [Compound 45B], the figure is under 2 nM; as for `Cc1nc(-n2cnc(C(F)(F)F)c2)ccc1[C@@H]1[C@H](C2CC2)C(=O)N1c1ccc2[nH]cnc2c1` (single isomer, unassigned) [Compound 72A], over 1000 nM; as for `C[C@H]1C(=O)N(c2ccc3[nH]cnc3c2)[C@H]1c1c(F)cc(OCCC2CC2)cc1F` (racemic) [Compound 34CR, (Cis and racemic)-1-(1H-benzo[d]imidazol-5-yl)-4-(4-(2-cyclopropylethoxy)-2,6-difluorophenyl)-3-methylazetidin-2-one], under 2 nM. With `C=C1C(=O)N(c2ccc3[nH]cnc3c2)[C@@H]1c1c(F)cc(OCCC(F)F)cc1F` (single isomer, unassigned) [Compound 22A], the IC50 is 25 to 1000 nM. The molecule `O=C1[C@H](C2CC2)[C@H](c2ccc(-c3cnn(C(F)(F)F)c3)nc2)N1c1ccc2[nH]cnc2c1` (single isomer, unassigned) [Compound 43B] came in with a half-maximal inhibitory concentration (IC50) of under 2 nM. Under `Cc1nc(-c2ccc(C(F)(F)F)nn2)ccc1[C@H]1[C@@H](C2CC2)C(=O)N1c1ccc2[nH]cnc2c1` (single isomer, unassigned) [Compound 70B] stands under 2 nM; under `O=C1[C@H](C2CC2)[C@H](c2ccc(-c3cnn(C(F)(F)F)c3)cc2)N1c1ccc2[nH]cnc2c1` (single isomer, unassigned) [Compound 55B], under 2 nM; under `O=C1[C@H](C2CC2)[C@H](c2ccc(-c3cnn(C(F)(F)F)c3)cn2)N1c1ccc2[nH]cnc2c1` (single isomer, unassigned) [Compound 46B], under 2 nM. Under `O=C1[C@H](C2CC2)[C@H](c2c(F)cc(-n3cc(C(F)(F)F)nn3)cc2F)N1c1ccc2[nH]cnc2c1` (single isomer, unassigned) [Compound 59B] stands under 2 nM; under `Cc1ccc(-c2cc(F)c([C@H]3[C@@H](C4CC4)C(=O)N3c3ccc4[nH]cnc4c3)c(F)c2)nn1` (single isomer, unassigned) [Compound 65B], under 2 nM.

On to `C[C@@H]1C(=O)N(c2ccc3[nH]cnc3c2)[C@H]1c1c(F)cc(OCCC2CC2)cc1F` (racemic) [Compound 34TR, (Trans and racemic)-1-(1H-benzo[d]imidazol-5-yl)-4-(4-(2-cyclopropylethoxy)-2,6-difluorophenyl)-3-methylazetidin-2-one], for which the half-inhibitory concentration (IC50) lay in the range of 25 to 1000 nM. Under `O=C1[C@H](C2CC2)[C@H](c2c(F)cc(-c3cnccn3)cc2F)N1c1ccc2[nH]cnc2c1` (single isomer, unassigned) [Compound 53B] stands under 2 nM; under `O=C1[C@@H](O)[C@H](c2c(F)cc(OCCC(F)F)cc2F)N1c1ccc2[nH]cnc2c1` (racemic) [Compound 8TR, (trans and racemic)-1-(1H-benzo[d]imidazol-5-yl)-4-(4-(3,3-difluoropropoxy)-2,6-difluorophenyl)-3-hydroxyazetidin-2-one], 25 to 1000 nM; under `O=C1[C@@H](O)[C@H](c2c(F)cc(-c3cnn(C(F)(F)F)c3)cc2F)N1c1ccc2[nH]cnc2c1` (racemic) [Compound 16TR], 25 to 1000 nM. Under `Cc1ccc(-c2ccc([C@@H]3[C@H](C4CC4)C(=O)N3c3ccc4[nH]cnc4c3)c(C)n2)nn1` (single isomer, unassigned) [Compound 71A] stands 25 to 1000 nM. As for `Cc1cc([C@@H]2[C@H](C3CC3)C(=O)N2c2ccc3[nH]cnc3c2)ccc1-c1cnn(C(F)(F)F)c1` (single isomer, unassigned) [Compound 57A], the half-maximal inhibitory concentration (IC50) was 25 to 1000 nM. Turning to `O=C1[C@H](C2CC2)[C@H](c2c(F)cc(-c3ccn(C(F)(F)F)n3)cc2F)N1c1ccc2[nH]cnc2c1` (single isomer, unassigned) [Compound 47B], the 50% inhibitory concentration (IC50) is under 2 nM.

`O=C1[C@H](C2CC2)[C@H](c2c(F)cc(OCCC(F)F)cc2F)N1c1ccc2[nH]cnc2c1` (single isomer, unassigned) [Compound 18B] had an IC50 of under 2 nM.

Turning to `Cc1cc(-c2cc(F)c([C@H]3[C@@H](C4CC4)C(=O)N3c3ccc4[nH]cnc4c3)c(F)c2)on1` (single isomer, unassigned) [Compound 62B], the IC50 is under 2 nM. For `C[C@H]1C(=O)N(c2ccc3[nH]cnc3c2)[C@H]1c1c(F)cc(-c2cnn(C(F)(F)F)c2)cc1F` (single isomer, unassigned) [Compound 14B], the half-maximal inhibitory concentration (IC50) is under 2 nM.

For `O=C1C(O)C(c2c(F)cc(OCCC(F)F)cc2F)N1c1ccc2[nH]cnc2c1` (racemic) [Compound 8, (cis and racemic)-1-(1H-benzo[d]imidazol-5-yl)-4-(4-(3,3-difluoropropoxy)-2,6-difluorophenyl)-3-hydroxyazetidin-2-one], the IC50 lay in the range of 2 to 25 nM. The molecule `O=C1[C@@H](C2CC2)[C@@H](c2c(F)cc(OCCC(F)F)cc2F)N1c1ccc2[nH]cnc2c1` (single isomer, unassigned) [Compound 18A] registered an IC50 of over 1000 nM.

The molecule `C[C@@H]1C(=O)N(c2ccc3[nH]cnc3c2)[C@@H]1c1c(F)cc(-c2cnn(C(F)F)c2)cc1F` (single isomer, unassigned) [Compound 17A] displayed a 50% inhibitory concentration (IC50) of 25 to 1000 nM. In turn, `Cc1cc(-n2cnc(C(F)(F)F)c2)ncc1[C@H]1[C@@H](C2CC2)C(=O)N1c1ccc2[nH]cnc2c1` (single isomer, unassigned) [Compound 73B] gave an IC50 of under 2 nM. Under `Cc1cc(-c2cnn(C(F)(F)F)c2)ccc1[C@H]1[C@@H](C2CC2)C(=O)N1c1ccc2[nH]cnc2c1` (single isomer, unassigned) [Compound 56B] stands under 2 nM; under `Cn1cc(-c2cc(F)c([C@@H]3[C@H](O)C(=O)N3c3ccc4[nH]cnc4c3)c(F)c2)cn1` (single isomer, unassigned) [Compound 15A], over 1000 nM; under `C[C@@H]1C(=O)N(c2ccc3[nH]cnc3c2)[C@@H]1c1c(F)cc(OCC(C)(C)O)cc1F` (single isomer, unassigned) [Compound 32A], 25 to 1000 nM.

As usually defined, the IC50 is the point on the concentration scale where inhibition reaches its midpoint. Lower therefore signals greater potency.
